Results published in patent publication US8999970B2, “Administration of an anti-obesity compound to individuals with renal impairment” (Arena Pharmaceuticals, Inc., priority 2010, dated 2015).
Several values for one entry are separate records, joined by “and”; a condition that tells them apart may be missing. Identical values can stand only once. Entries after “also recorded” stand apart in the source; their conditions may differ.

Key:
[1] = Modeled steady state exposures following lorcaserin 10 mg BID (simulations and noncompartmental analysis from QD data); settings: for AUC24 hr / Cmax / t1/2: 10 mg BID Simulation, Steady State
Description: To better assess the potential implications of M1 and M5 levels in patients, steady state exposures (i.e. the state of equilibrium obtained at the end of a certain number of dosings) following lorcaserin 10 mg twice daily (BID) dosing were modeled using simulations and noncompartmental analysis based on data from pharmacokinetic studies with once daily (QD) dosing.
To better assess the potential implications of M1 levels in subjects with renal impairment, steady state M1 exposure following lorcaserin 10 mg BID administration was modeled using simulations and noncompartmental analysis based upon data from pharmacokinetic studies with once daily (QD) dosing. This modeling is discussed below in Example 5.
To better assess the potential implications of M1 and M5 levels, steady state exposures following lorcaserin 10 mg BID dosing were modeled using simulations and noncompartmental analysis based upon data from pharmacokinetic studies with once daily (QD) dosing.

[2] = Preclinical toxicology: lorcaserin, M1 and M5 pharmacokinetics after oral administration of lorcaserin, 52 wk, monkeys; settings: for AUC0-inf / AUClast / Cmax / tmax: Monkeys, 52 wk
Description: Lorcaserin doses of 0, 2, 10, 50, and 125 mg/kg in a 5 mL/kg dose volume were administered by nasogastric intubation once daily for 12 months to cynomolgus monkeys (4 to 6/sex/group). Two animals/sex from the control, 50 and 125 mg/kg groups were continued on study without further dosing for an additional 4 weeks prior to termination. For the first 91 days of the study, dose solutions were prepared using anhydrous lorcaserin. Starting on Day 92 and continuing for the remainder of the study, dose solutions were prepared using lorcaserin hemihydrate to match the intended commercial form. […] Evaluations included clinical signs, food consumption, BW, electrocardiograms, ophthalmic exams, and clinical pathology indices. Blood samples were collected for TK analysis on Day 1, Week 4, Day 91, Day 92, and Week 52. A full necropsy was conducted on all animals, and tissues were collected, preserved, processed, and examined microscopically. Additional sections of heart were collected to allow comprehensive evaluation of all heart valves. Heart histopathologic evaluation included atria, ventricles, interventricular septum, both AV valves (mitral and tricuspid), and the aortic and pulmonic valves.

[3] = lorcaserin 10 mg/kg/day oral, F
[4] = lorcaserin 10 mg/kg/day oral, M
[5] = lorcaserin 50 mg/kg/day oral, F
[6] = lorcaserin 50 mg/kg/day oral, M
[7] = lorcaserin 125 mg/kg/day oral, F
[8] = lorcaserin 125 mg/kg/day oral, M

## C[C@H]1CN(S(=O)(=O)O)CCc2ccc(Cl)cc21 [Compound M1, lorcaserin sulfamate]
[1]; Mild
  AUC24 hr: 4620 ng·h/mL
  Cmax: 207 ng/mL
  t1/2: 34.6 h
[1]; Moderate
  AUC24 hr: 9670 ng·h/mL
  Cmax: 414 ng/mL
  t1/2: 109 h
[1]; Normal
  AUC24 hr: 2790 ng·h/mL
  Cmax: 130 ng/mL
  t1/2: 30.0 h
[1]; Severe
  AUC24 hr: 25,500 hr · ng/mL
  Cmax: 1090 ng/mL
  t1/2: 99.2 h
[1]; five times the modeled mean of 1090 ng/mL
  Level some individuals with severe renal impairment might reach at steady state: over 5000 ng/mL; also recorded: more than 5000 ng/mL
[2]; lorcaserin 2 mg/kg/day oral, F
  AUC0-inf: 41 µg·h/mL and 40.9 ± 1.6 µg·h/mL
  AUClast: 39.3 ± 1.8 µg·h/mL
  Cmax: 4580 ng/mL
  tmax: 1.5 ± 0.6 h
[2]; lorcaserin 2 mg/kg/day oral, M
  AUC0-inf: 62 µg·h/mL and 61.6 ± 15.4 µg·h/mL
  AUClast: 56.4 ± 14.3 µg·h/mL
  Cmax: 5010 ng/mL
  tmax: 3.0 ± 1.2 h
[2]; [3]
  AUC0-inf: 307 ± 66 µg·h/mL
  AUClast: 269 ± 40 µg·h/mL
  Cmax: 27500 ± 6600 ng/mL
  tmax: 2.5 ± 1.0 h
[2]; [4]
  AUC0-inf: 312 ± 79 µg·h/mL
  AUClast: 276 ± 74 µg·h/mL
  Cmax: 22000 ± 7600 ng/mL
  tmax: 3.3 ± 1.5 h
[2]; [5]
  AUC0-inf: 877 ± 221 µg·h/mL
  AUClast: 771 ± 182 µg·h/mL
  Cmax: 56300 ± 13400 ng/mL
  tmax: 5.2 ± 2.4 h
[2]; [6]
  AUC0-inf: 1060 ± 313 µg·h/mL
  AUClast: 904 ± 228 µg·h/mL
  Cmax: 62300 ± 14100 ng/mL
  tmax: 4.7 ± 1.6 h
[2]; [7]
  AUC0-inf: 1910 ± 865 µg·h/mL
  AUClast: 1580 ± 501 µg·h/mL
  Cmax: 115000 ± 24000 ng/mL
  tmax: 3.5 ± 2.5 h
[2]; [8]
  AUC0-inf: 2020 ± 856 µg·h/mL
  AUClast: 1460 ± 269 µg·h/mL
  Cmax: 106000 ± 31000 ng/mL
  tmax: 3.7 ± 2.3 h
[2]; monkeys 2 mg/kg/day (NOAEL), human 10 mg BID
  AUC0-inf in monkeys relative to predicted daily exposure in severe renal impairment: 1.6-2.4 times
[2]; monkeys 2 mg/kg/day (NOAEL), human 10 mg BID steady state
  Cmax in monkeys relative to predicted Cmax in severe renal impairment: approximately 5 times
[2]; monkeys 10 mg/kg/day
  Cmax margin, monkeys vs predicted exposure in severe renal impairment: 20-25 times
[2]; monkeys 10 mg/kg/day, human 10 mg BID
  AUC0-inf exposure margin, monkeys vs predicted daily exposure in severe renal impairment: about 12 fold
[2]; monkeys, Day 1, 2 to 125 mg/kg, both sexes
  Dose proportionality of plasma exposure: less than dose proportional
